Measured values reported in patent publication US12286437B2, “Cardiac sarcomere inhibitors” (Cytokinetics, Inc., priority 2021, dated 2025).

How the values were obtained:
[1] = tested on: Rat Cardiac Contractility; test: Echocardiography assessment of acute pharmacodynamic effect in rat cardiac contractility (fractional shortening); type: in vivo, Sprague Dawley rats; settings: oral gavage, plasma concentration vs fractional shortening, 1 and 4 h post-dose
Experimental: Assessment of in vivo cardiac function by echocardiography was performed in male Sprague Dawley rats under isoflurane (1-3%) anesthesia. 2-D M-mode images of the left ventricle were acquired in the parasternal long-axis view before, during, and after administration of compounds. In vivo fractional shortening was determined by M-mode image analysis with the following calculation: ((End diastolic diameter−end systolic diameter)[…] end diastolic diameter×100). Three pre-dose baseline M-Mode images were taken at 1-minute intervals prior to compound administration. Compounds were formulated in a 0.5% hydroxypropyl methylcellulose 2910 (HPMC 2910): 0.1% Tween 80 suspension and delivered as a single dose (5 mL/kg) by oral gavage. At one and four hours post-dose, rats were lightly anesthetized for M-mode echocardiography measurement. Concurrent with echocardiography measurements, blood samples were taken to determine the corresponding compound plasma concentrations. The resulting plasma concentrations were used to estimate the IC50 and IC10 values, which is the concentration at which fractional shortening is 50% and 10% of the pre-dose baseline contractility, respectively.

[2] = Dog single dose pharmacokinetics; type: in vivo, beagle dogs; settings: male, beagle, plasma, IV; for half-life: read-out: t½ (converted); for Vd: read-out: Vss
Experimental: Non-naïve male beagle dogs (8 months-3 years of age, body weight 8-13 kg) were used in this study. All animals for IV administration had free access to food and water; all animals for PO were fasted overnight prior to dosing and were fed approximately 6 hours after dosing. For the animals in PO group, pentagastrin (6.0 μg/kg, i.m.) was administrated 20 minutes before dosing PO formulation and 1.5 hours after the first pentagastrin dosing. The dosing volume was 0.024 mL/kg, the concentration was 250 μg/mL in DMSO/1 N NaOH/PBS. 10 mL of 0.001 N HCl was used to wash the gavage catheter for each animal. The IV dose solution was prepared in 10% DMA/50% PG/40% HPβCD solution (40% w/v aqueous HPβCD) at a concentration of 1.0 mg/mL. The oral dose suspension was prepared by suspending the compound in 0.5% HPMC/0.1% Tween 80 in distilled water at a concentration of 0.2 mg/mL. Concentrations of IV and PO doses were measured at the end of the study. PK parameters were calculated using the nominal dose values if the measured values were within 20% of the nominal values. Blood samples were collected by venipuncture of peripheral veins except the dosing vein at pre-dose, 5 15, 30 min, 1, 2, 4, 6, 8, 24 and 48 h post-dose. Blood samples were centrifuged and resultant plasma was frozen for bioanalysis. Plasma samples were stored at −80° C. before analysis. Plasma samples were analyzed for compound concentrations using the LC/MS/MS method. Briefly, a 50 μL aliquot of each plasma sample was mixed with 100 μL of acetonitrile that contained an internal standard. The mixture was vortexed and centrifuged. Ten (10) μL of the resulting solution was injected onto a reverse-phase C18 column and the resultant peaks detected on a LC/MS/MS equipped with a turbo ionspray ionization source. Sample concentrations below the limit of quantification (BLQ) were treated as zero for PK calculations. PK parameters were estimated from individual animals using noncompartmental analysis of the concentration-time data (Phoenix WinNonLin software, version 64; Pharsight, Mountain View, CA). The elimination rate constant (k) was calculated as the absolute value of the slope of the linear regression of logarithm (log) of the concentration versus time for the last three data points of the concentration-time profiles. Apparent elimination half-life (t1/2) values were calculated as ln(2)/k. Area under the concentration-time curve (AUC) values were estimated using linear trapezoidal method. AUCt values were calculated from the dosing time to the last measurable concentration. AUC∞ values were calculated as the sum of the corresponding AUCt and the ratio of the last detectable concentration divided by k. Plasma clearance (CL) was calculated from Dose/AUC∞. Mean resident time extrapolated to infinity (MRT∞) was estimated by moment analysis. Vss was calculated from MRT∞×CL. Maximum concentration (Cmax) and time to reach Cmax (tmax) were recorded as observed. As this was a cross-over study, bioavailability was calculated dAUC∞,po/dAUC∞,iv×100% where dAUC was the dose normalized AUC value from the same animal given IV and PO dose. Data for compounds tested are provided in Table D. Compounds tested were prepared in accordance with the synthetic procedures described herein.

[3] = Projected single-dose CL and Vss values in humans (allometric scaling of mouse, rat, dog, monkey IV PK); settings: human, projected by allometric scaling from single-dose IV PK
Experimental: Allometric scaling for the prediction of human Clearance and Volume of Distribution was based on interspecies simple allometric scaling of mouse, rat, dog, and cynomolgus monkey intravenous pharmacokinetic parameters (Boxenbaum, J Pharmacokinet Biopharm 10:201-27, 1982). Prediction of human CL was performed by extrapolating pre-clinical species' plasma intravenous clearance. The ‘rule of exponents’ (Mahmood & Balian, Life Sci 59:579-85, 1996) was examined in this prediction, where it has been proposed that, when the exponent of simple allometry lies between […] and 0.99, a correction factor based on Maximum Life Span (MLP) of this species can be applied and, when the exponent of simple allometry is greater than 1.0, a correction factor based on Brain Weight (BrW) can be applied, or a protein binding correction can be applied when available. In a similar manner, simple allometric scaling was employed to predict human Volume of Distribution. This method has been used successfully for varied drugs (Ward & Smith, Drug Metab Dispos 32:612-19, 2004; McGinnity et al., Curr Drug Metab 8:463-79, 2007).

Structure (SMILES): CC(C)N1CC(=O)N(Cc2ccc(Cl)c(F)c2)C2(CN(c3cccnn3)C2)C1=O [Compound 8, 5-(4-chloro-3-fluorobenzyl)-8-isopropyl-2-(pyridazin-3-yl)-2,5,8-triazaspiro[3.5]nonane-6,9-dione]
- IC10 [1]: 0.508 µM
- IC50 [1]: 2.25 µM

Structure (SMILES): C[C@H]1CC[C@H](N2CC(=O)N(Cc3ccc(F)c(F)c3)C3(CN(C=O)C3)C2=O)CC1 [Compound 4, 5-(3,4-difluorobenzyl)-8-((1r,4r)-4-methylcyclohexyl)-6,9-dioxo-2,5,8-triazaspiro[3.5]nonane-2-carbaldehyde]
- half-life [2]: 9.54 h
- Projected CL [3]: 1.84 mL/min/kg
- Projected Vss [3]: 4.51 L/kg
- Projected t½ [3]: 28.3 h
- IC10 [1]: 0.284 µM
- IC50 [1]: 2.76 µM

Structure (SMILES): C[C@H]1CC[C@H](N2CC(=O)N(Cc3ccc(F)c(F)c3)C3(CN(C(N)=O)C3)C2=O)CC1 [Compound 5, 5-(3,4-difluorobenzyl)-8-((1r,4r)-4-methylcyclohexyl)-6,9-dioxo-2,5,8-triazaspiro[3.5]nonane-2-carboxamide]
- IC10 [1]: 1.17 µM
- IC50 [1]: 4.44 µM

Structure (SMILES): C[C@H]1CC[C@H](N2CC(=O)N(Cc3ccc(Cl)cc3)C3(CN(C(N)=O)C3)C2=O)CC1 [Compound 18, 5-(4-chlorobenzyl)-8-((1r,4r)-4-methylcyclohexyl)-6,9-dioxo-2,5,8-triazaspiro[3.5]nonane-2-carboxamide]
- clearance [2]: 18.8 mL/min/kg
- Vd [2]: 5.73 L/kg
- half-life [2]: 5.8 h
- Projected CL [3]: 3.3 mL/min/kg
- Projected Vss [3]: 7.1 L/kg
- Projected t½ [3]: 25 h
- IC10 [1]: 0.892 µM
- IC50 [1]: 2.83 µM

Structure (SMILES): CC(C)N1CC(=O)N(Cc2ccc(C(F)(F)F)cc2)C2(CN(c3cccnn3)C2)C1=O [Compound 13, 8-isopropyl-2-(pyridazin-3-yl)-5-(4-(trifluoromethyl)benzyl)-2,5,8-triazaspiro[3.5]nonane-6,9-dione]
- clearance [2]: 7.45 mL/min/kg
- Vd [2]: 2.85 L/kg
- half-life [2]: 6.44 h
- Projected CL [3]: 4.66 mL/min/kg
- Projected Vss [3]: 3.43 L/kg
- Projected t½ [3]: 8.51 h
- IC10 [1]: 0.317 µM
- IC50 [1]: 1.17 µM
